The nature of data set [1]: RP, Waters ACQUITY UPLC HSS T3, 100 × 2.1 mm, 1.8 µm; A: water + 0.1% formic acid, pH 3; B: 30% methanol + 70% acetonitrile + 0.1% formic acid, pH 3; gradient (min/%B) 0.0/5 1.0/8 2.0/15 3.0/40 4.0/70 4.5/100 5.0/100 6.4/100 6.6/5.0 6.8/5.0 7.0/5.0. The settings on record: stereoisomer not certain.
Data set [2] in a line: RP, Waters ACQUITY UPLC BEH C18, 100 × 2.1 mm, 1.7 µm; A: water + 0.1% formic acid, pH 3; B: 80% acetonitrile + 20% acetone + 0.1% formic acid, pH 3; gradient (min/%B) 0/0 6/100. The conditions noted are these: stereoisomer not certain.

Molecules are shown by their SMILES. Where a name gives a salt, the structure may show the parent alone.

In the case of `O=C(O)C1CC(O)CN1` (stereo not drawn) [trans-4-hydroxy-l-proline], the LC retention time in data set [1] was found to be 0.479 min; in data set [2], 0.577 min.
As for `NCCS(=O)(=O)O` [Taurine], the results for the LC retention time in data set [1] and in data set [2] were 0.47 min and 0.556 min, respectively.
For `NC(CS)C(=O)O` (stereo not drawn) [l-cysteine], the LC retention time in data set [1] turned out to be 0.491 min; in data set [2] it was 0.603 min.
For `CC(O)C1NC(=O)C2CCCN2C1=O` (configuration not stated) [Cyclic(pro-thr)], the LC retention time in data set [1] was 1.54 min; in data set [2] it was 1.37 min.
The like results for `CN(C)CC(=O)O` [N,N-dimethylglycine] were, in that order, 0.47 min and 0.572 min.
For `NCCCC(N)C(=O)O` (stereo not drawn) [l-ornithine monohydrochloride], the figures for the LC retention time in data set [1] and in data set [2] were 0.415 min and 0.517 min, respectively.
The like results for `O=c1[nH]cnc2nc[nH]c12` [hypoxanthine] were, in that order, 0.706 min and 0.882 min.
Regarding `CC(=O)CCC(=O)O` [levulinic acid], the LC retention time in data set [1] is 1.46 min; in data set [2] it was 1.39 min.
For the compound `NCCS(=O)O` [hypotaurine], the LC retention time in data set [1] came out at 0.468 min; in data set [2] it was 0.576 min.
As for `CC(=O)NC(CC(=O)O)C(=O)NC(CCC(=O)O)C(=O)O` (configuration not stated) [n-acetyl-asp-glu], the LC retention time in data set [1] turned out to be 0.863 min; in data set [2], 1.28 min.
The corresponding values for `CC(NCCCCC(N)C(=O)O)C(=O)O` (configuration not stated) [CEL] are 0.459 min and 0.571 min.
The corresponding values for `O=c1cc[nH]c(=O)[nH]1` [Uracil] are 0.628 min and 0.752 min.
As to `NCCc1c[nH]c2ccccc12` [tryptamine hydrochloride], the LC retention time in data set [1] stood at 2.65 min; in data set [2], 1.53 min.
The corresponding values for `CC(CCC(=O)O)C1CCC2C3C(O)CC4CC(O)CCC4(C)C3CC(O)C12C` (configuration not stated) [Cholic acid] are 4.46 min and 3.4 min.
Turning to `NC(CSSCC(N)C(=O)O)C(=O)O` (stereo not drawn) [l-cystine], the LC retention time in data set [1] is 0.447 min; in data set [2], 0.546 min.
For the compound `Cn1c(=N)ccn(C2OC(CO)C(O)C2O)c1=O` (configuration not stated) [3-methylcytidine methosulfate], the LC retention time was found to be 0.619 min in data set [1] and 0.986 min in data set [2].
For `Cn1c(=O)[nH]c(=O)c2[nH]cnc21` [3-methylxanthine], the results for the LC retention time in data set [1] and in data set [2] were 1.45 min and 1.28 min, respectively.
The like results for `O=C(O)C1OC(Oc2c[nH]c3ccccc23)C(O)C(O)C1O` (stereo not drawn) [indoxyl beta-d-glucuronide cyclohexylammonium salt] were, in that order, 2.95 min and 1.7 min.
The corresponding values for `Cn1cnc2c(ncn2C2OC(CO)C(O)C2O)c1=N` (configuration not stated) [1-methyladenosine] are 1.63 min and 1.3 min.
The like results for `CC(C)(O)CC(=O)O` [3-hydroxy-3-methyl butanoic acid] were, in that order, 1.63 min and 1.44 min.
Take `CCCCCCCCC=CCCCCCCCC(=O)OCC(O)COP(=O)([O-])OCC[N+](C)(C)C` (configuration not stated) [lysoPC(18:1(9Z)/0:0)]: the values for the LC retention time in data set [1] and in data set [2] were 4.72 min and 4.5 min, respectively.
As to `CC(CCC(=O)O)C1CCC2C3CCC4CC(O)CCC4(C)C3CC(O)C12C` (configuration not stated) [Deoxycholic acid], the LC retention time is 4.62 min in data set [1] and 3.94 min in data set [2].
The like results for `Nc1ccc(C(=O)NCC(=O)O)cc1` [p-aminohippuric acid] were, in that order, 1.2 min and 1.29 min.
The like results for `NC(CCCCn1c(C=O)ccc1CO)C(=O)O` (configuration not stated) [pyrraline] were, in that order, 2.31 min and 1.43 min.
For `O=C(O)CCCCCCCC(=O)O` [Azelaic acid], the LC retention time worked out at 3.63 min in data set [1] and 2.26 min in data set [2].
The corresponding values for `O=c1[nH]cc(C2OC(CO)C(O)C2O)c(=O)[nH]1` (configuration not stated) are 0.743 min and 1.16 min.
